Measurements taken from patent publication US20250263404A1, “AMINOPYRIDINES AS ACTIVATORS OF PI3 KINASE” (UCL Business Ltd, priority 2021, published 2025).

Assays:
[1] = tested on: PIP3 production in A549 cells; assay: TIRF microscopy of PIP3 reporter in A549 cells; type: cell-based, human
Source text: Class I PI3Ks convert the PtdIns(4,5)P2 lipid in the plasma membrane to PtdIns(3,4,5)P3 (or PIP3) which is converted to PtdIns(3,4)P2 by the action of 5-phosphatases. The inventors therefore tested whether stimulation of cells with 1938 led to the generation of PIP3 and PI(3,4)P2 using live imaging in cells expressing fluorescent biosensors that selectively bind these lipids. […] This PIP3 peak was followed by the generation of membrane-associated PI(3,4)P2 (FIG. 3aiii), with a timing in line with the known mechanism of cellular generation of PI(3,4)P2 from PIP3 by the action of 5-phosphatases. Similar kinetics of PIP3 and PI(3,4)P2 production have previously been reported in HeLa cells stimulated with insulin. […]
Image analyses of total reporter intensities were performed with the Fiji open source image analysis package. The region of interest (ROI) corresponding to the footprint of the individual cell across time points were defined using minimal intensity projection to select only pixels present across all time points, following prior subtraction of camera noise (rolling ball method, radius=500 pixels) and xy drift correction, intensity levels over time were measured. […] All other quantifications were performed using the open source software R/RStudio. […]

BRK = BRK (Homo sapiens, UniProt Q13882); assay: SelectScreen kinase profiling, BRK; type: biochemical; details: 1 μM of 1938, 75 μM ATP
Procedure: 133 protein kinases and 7 lipid kinases were counterscreened, with […] used at 1 μM, using the Adapta, Lantha and Z-LYTE assays (SelectScreen Kinase Profiling Service; Thermofisher—experimental details of these assays can be found here: https://www.thermofisher.com/uk/en/home/industrial/pharma-biopharma/drug-discovery-development/target-and-lead-identification-and-validation/kinasebiology/kinase-activity-assays.html. The tree representation in KinMap generated courtesy of Cell Signaling Technology, Inc. (www.cellsignal.com). mTORC1 (mTOR/RAPTOR/LST8) protein complex and ATM kinase and substrates were produced as previously described (Anandapadamanaban, M. et al. Science (New York, NY 366, 203-210 (2019); Baretic, D. et al. Sci Adv 3, e1700933 (2017). Screening of 1938 was conducted using SuperSep Phos-Tag 50 μmol/l 100×100×6.6 mm 17-well (192-18001/199-18011) gels. For ATM assays, 100 nM ATM was incubated for 30 min at 30° C. with 5 μM GST-p53 and 1 mM ATP, in the absence or presence of 200 μM 1938 in ATM Kinase Buffer (50 mM HEPES pH 7.5, 100 mM NaCl, 10% glycerol, 2 mM […], 5 mM MgCl2). […] Gels were then stained using InstantBlue™ Coomassie stain, and then quantified using BioRad Image Lab Software. […]

Chain of BRK (Q13882 whole entry): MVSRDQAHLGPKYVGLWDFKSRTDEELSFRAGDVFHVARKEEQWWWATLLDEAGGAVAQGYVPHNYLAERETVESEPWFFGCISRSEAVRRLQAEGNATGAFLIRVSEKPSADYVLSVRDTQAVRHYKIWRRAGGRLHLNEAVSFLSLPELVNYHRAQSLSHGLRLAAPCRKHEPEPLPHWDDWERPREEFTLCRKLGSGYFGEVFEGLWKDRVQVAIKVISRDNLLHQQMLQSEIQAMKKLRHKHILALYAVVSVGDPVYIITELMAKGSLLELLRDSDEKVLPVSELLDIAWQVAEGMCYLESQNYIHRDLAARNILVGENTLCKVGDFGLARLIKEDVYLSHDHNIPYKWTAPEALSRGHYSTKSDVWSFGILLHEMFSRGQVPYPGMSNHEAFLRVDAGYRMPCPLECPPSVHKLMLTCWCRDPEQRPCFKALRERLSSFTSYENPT

- inhibition of BRK (BRK): 56%
SMILES: CCN1CCN(c2ccc(Nc3cc(Nc4cccc5c4N(C(C)=O)CC5)ccn3)cc2)CC1 [Example 1938]
- PIP3 signal in PIK3CA-null A549 cells ([1]; PIK3CA-null A549 cells): did not increase
- time to plasma membrane-associated PIP3 production ([1]; serum-starved A549 cells): less than 3 min
